Measured values from patent US12209081B2 (Katholieke Universiteit Leuven, priority 2020, dated 2025).

biological target: mouse TRPM3α2 (mTRPM3) ion channel (Mus musculus (Mouse), UniProt J9SQF3); test: TRPM3 ion channel driven Ca2+ uptake, Fluo-4 AM assay, mTRPM3alpha2 overexpressing flip-in HEK293 cells stimulated with pregnenolone sulfate; type: cell-based; settings: PS (50 μM) stimulated, cpds. 500-599
Outline: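 Read-out is Ca2+ influx via Fluo-4 AM fluorescence at 485/535 nm, taken right after seeding ~2000 cells/well onto compound with 50 μM PS. Inhibition computed from RFU between vehicle-stimulated and positive-control-inhibitor wells; cells were mTRPM3α2-overexpressing flip-in HEK293.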

mouse TRPM3α2 (mTRPM3) ion channel, sequence (J9SQF3 other isoform, or with tags, fused parts or gaps): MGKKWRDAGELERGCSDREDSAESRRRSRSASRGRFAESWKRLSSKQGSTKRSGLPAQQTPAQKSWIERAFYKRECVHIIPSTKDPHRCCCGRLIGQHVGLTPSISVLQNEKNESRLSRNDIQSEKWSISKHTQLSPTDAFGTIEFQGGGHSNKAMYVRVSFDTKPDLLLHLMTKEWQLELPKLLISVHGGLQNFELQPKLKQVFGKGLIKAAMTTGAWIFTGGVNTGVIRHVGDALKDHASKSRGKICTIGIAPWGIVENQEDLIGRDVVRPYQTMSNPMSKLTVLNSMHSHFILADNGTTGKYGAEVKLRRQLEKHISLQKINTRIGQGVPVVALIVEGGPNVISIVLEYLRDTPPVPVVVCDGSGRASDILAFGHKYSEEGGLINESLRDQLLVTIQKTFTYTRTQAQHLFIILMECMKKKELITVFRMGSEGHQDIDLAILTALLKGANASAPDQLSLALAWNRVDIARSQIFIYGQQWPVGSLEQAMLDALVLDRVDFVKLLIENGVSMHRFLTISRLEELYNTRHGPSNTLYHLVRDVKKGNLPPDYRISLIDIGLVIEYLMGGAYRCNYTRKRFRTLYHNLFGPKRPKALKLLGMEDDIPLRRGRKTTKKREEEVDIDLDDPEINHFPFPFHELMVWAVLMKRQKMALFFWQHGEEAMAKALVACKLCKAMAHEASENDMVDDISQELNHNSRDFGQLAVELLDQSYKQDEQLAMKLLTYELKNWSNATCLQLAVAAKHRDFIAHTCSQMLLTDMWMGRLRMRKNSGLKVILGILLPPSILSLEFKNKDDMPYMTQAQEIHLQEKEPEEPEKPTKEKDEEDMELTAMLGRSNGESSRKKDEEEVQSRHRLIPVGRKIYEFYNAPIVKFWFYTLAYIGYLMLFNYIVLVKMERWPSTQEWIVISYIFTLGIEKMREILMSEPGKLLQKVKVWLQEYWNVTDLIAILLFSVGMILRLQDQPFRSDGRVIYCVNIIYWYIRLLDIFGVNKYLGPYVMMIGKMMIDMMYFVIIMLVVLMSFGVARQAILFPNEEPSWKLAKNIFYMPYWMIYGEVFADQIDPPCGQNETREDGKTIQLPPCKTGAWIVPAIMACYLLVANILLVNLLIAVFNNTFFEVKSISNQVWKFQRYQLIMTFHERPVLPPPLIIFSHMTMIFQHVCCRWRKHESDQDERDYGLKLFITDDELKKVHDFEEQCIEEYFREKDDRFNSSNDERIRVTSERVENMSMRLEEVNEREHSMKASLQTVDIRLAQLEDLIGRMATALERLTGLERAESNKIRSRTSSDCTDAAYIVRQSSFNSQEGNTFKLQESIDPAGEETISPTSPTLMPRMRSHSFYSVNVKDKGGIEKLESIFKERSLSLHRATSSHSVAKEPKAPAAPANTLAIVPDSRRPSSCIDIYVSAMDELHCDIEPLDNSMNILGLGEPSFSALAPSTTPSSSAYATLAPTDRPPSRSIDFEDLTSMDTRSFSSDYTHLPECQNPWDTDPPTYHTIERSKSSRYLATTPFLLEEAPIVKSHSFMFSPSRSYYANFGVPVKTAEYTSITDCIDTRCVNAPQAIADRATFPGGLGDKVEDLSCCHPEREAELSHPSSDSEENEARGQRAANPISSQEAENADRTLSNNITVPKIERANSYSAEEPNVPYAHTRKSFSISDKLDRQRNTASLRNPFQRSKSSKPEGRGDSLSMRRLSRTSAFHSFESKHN

| IC50 | Compound |
| --- | --- |
| < 1000 nM | Cc1ncsc1COc1ccc2oc(C)c(C(=O)NCC(C)(C)C(N)=O)c2c1 [compound 576, N-(3-amino-2,2-dimethyl-3-oxopropyl)-2-methyl-5-((4-methylthiazol-5-yl)methoxy)benzofuran-3-carboxamide] |
| < 1000 nM | Cc1ncsc1COc1ccc2oc(C(F)F)c(C(=O)NC3(C(N)=O)COC3)c2c1 [compound 577, N-(3-carbamoyloxetan-3-yl)-2-(difluoromethyl)-5-((4-methylthiazol-5-yl)methoxy)benzofuran-3-carboxamide] |
| < 1000 nM | Cc1oc2ccc(OCc3ccnn3C)cc2c1C(=O)NC1(C(N)=O)COC1 [compound 579, N-(3-carbamoyloxetan-3-yl)-2-methyl-5-((1-methyl-1H-pyrazol-5-yl)methoxy)benzofuran-3-carboxamide] |
| < 1000 nM | Cc1ncc(COc2ccc3oc(C)c(C(=O)NC4(C(N)=O)COC4)c3c2)s1 [compound 580, N-(3-carbamoyloxetan-3-yl)-2-methyl-5-((2-methylthiazol-5-yl)methoxy)benzofuran-3-carboxamide] |
| < 1000 nM | Cc1oc2ccc(OCc3ccccn3)cc2c1C(=O)NC1(C(N)=O)COC1 [compound 581, N-(3-carbamoyloxetan-3-yl)-2-methyl-5-(pyridin-2-ylmethoxy)benzofuran-3-carboxamide] |
| < 1000 nM | Cc1oc2ccc(OCc3nccs3)cc2c1C(=O)NC1(C(N)=O)COC1 [compound 582, N-(3-carbamoyloxetan-3-yl)-2-methyl-5-(thiazol-2-ylmethoxy)benzofuran-3-carboxamide] |
| < 1000 nM | Cc1ncsc1COc1ccc2oc(C)c(C(=O)NC3(C(N)=O)COC3)c2c1F [compound 583, N-(3-carbamoyloxetan-3-yl)-4-fluoro-2-methyl-5-((4-methylthiazol-5-yl)methoxy)benzofuran-3-carboxamide] |
| < 1000 nM | Cc1oc2ccc(OCc3cccnc3C(F)F)cc2c1C(=O)NC1(C(N)=O)COC1 [compound 584, N-(3-carbamoyloxetan-3-yl)-5-((2-(difluoromethyl)pyridin-3-yl)methoxy)-2-methylbenzofuran-3-carboxamide] |
| < 1000 nM | Cc1oc2ccc(OCc3cccnc3O)cc2c1C(=O)NC1(C(N)=O)COC1 [compound 585, N-(3-carbamoyloxetan-3-yl)-5-((2-hydroxypyridin-3-yl)methoxy)-2-methylbenzofuran-3-carboxamide] |
| < 1000 nM | COc1ncccc1COc1ccc2oc(C)c(C(=O)NC3(C(N)=O)COC3)c2c1 [compound 586, N-(3-carbamoyloxetan-3-yl)-5-((2-methoxypyridin-3-yl)methoxy)-2-methylbenzofuran-3-carboxamide] |
| < 1000 nM | Cc1ncsc1COc1cc2c(C(=O)NC3(C(N)=O)COC3)c(C)oc2cc1F [compound 587, N-(3-carbamoyloxetan-3-yl)-6-fluoro-2-methyl-5-((4-methylthiazol-5-yl)methoxy)benzofuran-3-carboxamide] |
| < 1000 nM | Cc1ncsc1COc1cc(F)c2oc(C)c(C(=O)NC3(C(N)=O)COC3)c2c1 [compound 588, N-(3-carbamoyloxetan-3-yl)-7-fluoro-2-methyl-5-((4-methylthiazol-5-yl)methoxy)benzofuran-3c-arboxamide] |
| 1000 to 20000 nM | Cc1ncsc1COc1ccc2oc(C)c(C(=O)N(C)C3(C(N)=O)COC3)c2c1 [compound 589, N-(3-carbamoyloxetan-3-yl)-N,2-dimethyl-5-((4-methylthiazol-5-yl)methoxy)benzofuran-3-carboxamide] |

same assay, conditions: PS (50 μM) stimulated, cpds. 608-666

| Compound | IC50 |
| --- | --- |
| Cc1ncsc1COc1ccc2oc(C)c(C(=O)NCC(C)(C)CO)c2c1 [compound 602, N-(3-hydroxy-2,2-dimethylpropyl)-2-methyl-5-((4-methylthiazol-5-yl)methoxy)benzofuran-3-carboxamide] | < 1000 nM |
| Cc1oc2ccc(OCc3cn(C)nn3)cc2c1C(=O)NC1(CO)CCOCC1 [compound 604, N-(4-(hydroxymethyl)tetrahydro-2H-pyran-4-yl) -2-methyl-5-((1-methyl-1H-1,2,3-triazol-4-yl)methoxy)benzofuran-3-carboxamide] | > 20000 nM |
| Cc1oc2ccc(OCc3cnnn3C)cc2c1C(=O)NC1(CO)CCOCC1 [compound 605, N-(4-(hydroxymethyl)tetrahydro-2H-pyran-4-yl)-2-methyl-5-((1-methyl-1H-1,2,3-triazol-5-yl)methoxy)benzofuran-3-carboxamide] | > 20000 nM |
| Cc1oc2ccc(OCc3ccnn3C)cc2c1C(=O)NC1(CO)CCOCC1 [compound 608, N-(4-(hydroxymethyl)tetrahydro-2H-pyran-4-yl)-2-methyl-5-((1-methyl-1H-pyrazol-5-yl)methoxy)benzofuran-3-carboxamide] | < 1000 nM |
| Cc1ncccc1COc1ccc2oc(C)c(C(=O)NC3(CO)CCOCC3)c2c1 [compound 611, N-(4-(hydroxymethyl)tetrahydro-2H-pyran-4-yl)-2-methyl-5-((2-methylpyridin-3-yl)methoxy)benzofuran-3-carboxamide] | < 1000 nM |
| Cc1ncc(COc2ccc3oc(C)c(C(=O)NC4(CO)CCOCC4)c3c2)s1 [compound 613, N-(4-(hydroxymethyl)tetrahydro-2H-pyran-4-yl)-2-methyl-5-((2-methylthiazol-5-yl)methoxy)benzofuran-3-carboxamide] | < 1000 nM |

Results, then the molecule that gave them:

| IC50 | Compound |
| --- | --- |
| < 1000 nM | Cc1oc2ccc(OCc3ccc[nH]c3=O)cc2c1C(=O)NC1(CO)CCOCC1 [compound 614, N-(4-(hydroxymethyl)tetrahydro-2H-pyran-4-yl)-2-methyl-5-((2-oxo-1,2-dihydropyridin-3-yl)methoxy)benzofuran-3-carboxamide] |
| < 1000 nM | Cc1oc2ccc(OCc3c[nH]nc3C(F)(F)F)cc2c1C(=O)NC1(CO)CCOCC1 [compound 615, N-(4-(hydroxymethyl)tetrahydro-2H-pyran-4-yl)-2-methyl-5-((3-(trifluoromethyl)-1H-pyrazol-4-yl)methoxy)benzofuran-3-carboxamide] |
| < 1000 nM | Cc1cc(COc2ccc3oc(C)c(C(=O)NC4(CO)CCOCC4)c3c2)no1 [compound 618, N-(4-(hydroxymethyl)tetrahydro-2H-pyran-4-yl)-2-methyl-5-((5-methylisoxazol-3-yl)methoxy)benzofuran-3-carboxamide] |
| < 1000 nM | Cc1cnc(COc2ccc3oc(C)c(C(=O)NC4(CO)CCOCC4)c3c2)s1 [compound 620, N-(4-(hydroxymethyl)tetrahydro-2H-pyran-4-yl)-2-methyl-5-((5-methylthiazol-2-yl)methoxy)benzofuran-3-carboxamide] |
| > 20000 nM | Cc1ccc(COc2ccc3oc(C)c(C(=O)NC4(CO)CCOCC4)c3c2)nn1 [compound 621, N-(4-(hydroxymethyl)tetrahydro-2H-pyran-4-yl)-2-methyl-5-((6-methylpyridazin-3-yl)methoxy)benzofuran-3-carboxamide] |
| < 1000 nM | Cc1oc2ccc(OCc3cccnn3)cc2c1C(=O)NC1(CO)CCOCC1 [compound 624, N-(4-(hydroxymethyl)tetrahydro-2H-pyran-4-yl)-2-methyl-5-(pyridazin-3-ylmethoxy)benzofuran-3-carboxamide] |
| < 1000 nM | Cc1oc2ccc(OCc3cccnc3)cc2c1C(=O)NC1(CO)CCOCC1 [compound 625, N-(4-(hydroxymethyl)tetrahydro-2H-pyran-4-yl)-2-methyl-5-(pyridin-3-ylmethoxy)benzofuran-3-carboxamide] |
| < 1000 nM | Cc1oc2ccc(OCc3cncs3)cc2c1C(=O)NC1(CO)CCOCC1 [compound 627, N-(4-(hydroxymethyl)tetrahydro-2H-pyran-4-yl)-2-methyl-5-(thiazol-5-ylmethoxy)benzofuran-3-carboxamide] |
| < 1000 nM | COc1cc(COc2ccc3oc(C)c(C(=O)NC4(CO)CCOCC4)c3c2)ccn1 [compound 629, N-(4-(hydroxymethyl)tetrahydro-2H-pyran-4-yl)-5-((2-methoxypyridin-4-yl)methoxy)-2-methylbenzofuran-3-carboxamide] |
| > 20000 nM | Cc1oc2ccc(OCc3cccc(O)n3)cc2c1C(=O)NC1(CO)CCOCC1 [compound 630, N-(4-(hydroxymethyl)tetrahydro-2H-pyran-4-yl)-5-((6-hydroxypyridin-2-yl)methoxy)-2-methylbenzofuran-3-carboxamide] |
| > 20000 nM | Cc1oc2ccc(OCc3ccc(O)nc3)cc2c1C(=O)NC1(CO)CCOCC1 [compound 631, N-(4-(hydroxymethyl)tetrahydro-2H-pyran-4-yl)-5-((6-hydroxypyridin-3-yl)methoxy)-2-methylbenzofuran-3-carboxamide] |
| < 1000 nM | Cc1ncsc1COc1ccc2oc(C)c(C(=O)N(C)C3(CO)CCOCC3)c2c1 [compound 634, N-(4-(hydroxymethyl)tetrahydro-2H-pyran-4-yl)-N.2-dimethyl-5-((4-methylthiazol-5-yl)methoxy)benzofuran-3-carboxamide] |
| < 1000 nM | Cc1ncsc1COc1ccc2oc(C)c(C(=O)NC(C)(C)CC(N)=O)c2c1 [compound 649, N-(4-amino-2-methyl-4-oxobutan-2-yl)-2-methyl-5-((4-methylthiazol-5-yl)methoxy)benzofuran-3-carboxamide] |
| < 1000 nM | Cc1ncsc1COc1ccc2oc(C)c(C(=O)NC3(C(N)=O)CCOCC3)c2c1 [compound 650, N-(4-carbamoyltetrahydro-2H-pyran-4-yl)-2-methyl-5-((4-methylthiazol-5-yl)methoxy)benzofuran-3-carboxamide] |
| < 1000 nM | Cc1oc2ccc(OCc3cccnc3C(F)(F)F)cc2c1C(=O)NC(C)(C)CCO [compound 651, N-(4-hydroxy-2-methylbutan-2-yl)-2-methyl-5-((2-(trifluoromethyl)pyridin-3-yl)methoxy)benzofuran-3-carboxamide] |
| < 1000 nM | Cc1ncsc1COc1ccc2oc(C)c(C(=O)NC(C)(C)CCO)c2c1 [compound 652, N-(4-hydroxy-2-methylbutan-2-yl)-2-methyl-5-((4-methylthiazol-5-yl)methoxy)benzofuran-3-carboxamide] |
